Literature values in patent publication EP0147926B1, “Oral anti-cancer compositions” (priority 1983, dated 1985).

Experiments:
ADJ/PC6A plasmacytoma = conditions: administered orally
[1] = test system: P388 lymphocytic leukaemia; conditions: administered orally

N.N.O=C([O-])C1(C(=O)[O-])CCC1.[Pt+2] [cis-[diammine-(1,1-cyclobutanedicarboxylato)platinum(II)l]
activity (ADJ/PC6A plasmacytoma): insignificant activity | activity [1]: insignificant activity
